Source: PMC11050443, “Discovery of Strong 3-Nitro-2-Phenyl-2H-Chromene Analogues as Antitrypanosomal Agents and Inhibitors of Trypanosoma cruzi Glucokinase” (International Journal of Molecular Sciences, 2024)
Values joined by “and” are separate entries in the source; they are usually repeats but may differ in a detail not shown here. Equal entries are not always repeated.

Key:
[1] = test system: T. cruzi (Tulahuen strain) infective form co-cultured in NIH-3T3 fibroblasts; assay: In vitro T. cruzi biological assay (β-galactosidase/CPRG); type: cell-based, Trypanosoma cruzi; details: for IC50: Tulahuen strain infective form growth inhibition co-cultured in NIH-3T3 fibroblasts, 4 days, N = 3; for T. cruzi growth inhibition (in words): efficacy in IC50
Experimental: General methods for the preparation of in vitro cell cultures involving T. cruzi parasites and mammalian cells along with the exposure to inhibitors has previously been described by Andriani and colleagues. T. cruzi (Tulahuen strain) that expresses β-galactosidase was harvested by centrifugation at 2500 rpm for 7 min. Parasites were rinsed twice with DMEM lacking phenol red and supplemented with 2% fetal bovine serum (FBS) and 1% penicillin—streptomycin—L-glutamine (PSG); the final concentrations of the PSG components were 100 U/mL penicillin, 0.1 mg/mL streptomycin, and 0.292 mg/mL L-glutamine. It was necessary to exclude phenol red since it interferes with the absorbance reading at λ = 590 nm. The parasites were centrifuged again for 7 min at 2500 rpm and the 50 mL tubes were carefully removed from the centrifuge. The tubes were placed on a rack with an incubator so that the trypomastigotes would move out of the pellet in a timeframe of 3–5 h. During this period, 100 μL of NIH-3T3 cells (50,000 cells) were plated per well in a transparent, clear, flat-bottom, and sterile 96-well microplate. This plate was placed in an incubator for 3 h at 37 °C to allow the cells to attach. The 3-nitro-2-phenyl-2H-chromene compounds (inhibitors) that were prepared as 10.0 mM stock solutions in 100% DMSO were thawed from −80 °C to room temperature. The compound solutions were diluted to their desired working concentrations, which ranged from 0.0781–10.0 μM. This was accomplished by serial dilution using a 2-fold dilution. A total of 100 μL of parasites was added to each well, which contained 50,000 trypomastigotes, and were incubated for 4 days. Using a multichannel pipette, 50.0 μL of the substrate solution [500 μM CPRG in phosphate buffered saline supplemented with 0.5% detergent NP-40] was added to each well of the 96-well microplate. The plate was placed into an incubator for 4 h followed by measuring absorbance readings at λ = 590 nm using a Victor Nivo multimode microplate reader (PerkinElmer, Inc.; Shelton, CT, USA). All measurements were performed in triplicate; absorbance values were proportional to parasite cell viability. IC50 determinations for percent growth inhibition were processed using GraphPad Prism 10.0. Amphotericin B was used as a positive control, the final solution concentration of which was 4.0 μM (prepared as a 270 μM stock solution). Four control conditions were carried out, as follows: (a) NIH-3T3 cells and parasites, (b) NIH-3T3 cells without parasites, (c) NIH-3T3 cells, parasites, and 4.0 μM amphotericin B, and (d) the medium alone.

[2] = test system: NIH-3T3 fibroblasts; assay: In vitro cytotoxicity assay of mammalian NIH-3T3 fibroblasts (Alamar blue); type: cell-based; details: NIH-3T3 fibroblast growth inhibition, host cell toxicity; 4 days; N = 3
Experimental: The in vitro cell culturing of mammalian NIH-3T3 fibroblasts following treatment with inhibitors to assess for cytotoxicity has previously been described. DMEM lacking phenol red and supplemented with 2% FBS and 1% PSG was warmed up. NIH-3T3 cells were trypsinized, as described in the cell culture protocol. When cells became detached, they were harvested in DMEM lacking phenol red and including 2% FBS and 1% PSG. The cells were centrifuged at 1000 rpm for 5 min, the medium was discarded, and the cells were resuspended in fresh DMEM lacking phenol red and including 2% FBS and 1% PSG. The cells were centrifuged at 1000 rpm for 5 min, resuspended in the medium, counted, and diluted to 500,000 cells/mL. Dilution was accomplished by transferring the stock number of cells into a sterile basin and 100 μL of cells was added to each well of a transparent, sterile, flat-bottom, 96-well microplate (50,000 cells/well) using a multichannel pipette. The plate was placed into the incubator for 3 h to allow cells to attach. The 3-nitro-2-phenyl-2H-chromene compounds were thawed from −80 °C to room temperature. The compounds were prepared as 10.0 mM stock solutions in 100% DMSO. A volume of 2.0 μL of a given compound plus a volume of 98.0 μL of fresh media were both added to a well in the first row of the 96-well microplate; this was performed for each compound to be tested. The solutions were mixed with a micropipette, followed by the transfer of 100 μL to the next row and repeated. The compound solutions ranged from 0.0139–30.3 μM and this was accomplished by serial dilution using a 3-fold dilution. After incubation for 4 days, 10.0 μL of Alamar blue was added to each well. Absorbance readings were measured using a Victor Nivo multimode microplate reader (PerkinElmer, Inc.; Shelton, CT, USA) at λ = 590 nm. All measurements were performed in triplicate and TC50 determinations for percent growth inhibition were carried out using GraphPad Prism 10.0. The final volume per well of cells and a given compound was 100 μL and this volume became 110 μL after the addition of Alamar blue. The detergent SDS was used as a positive control and its final solution concentration was 0.1%. Three controls were carried out, as follows: (a) NIH-3T3 cells alone, (b) perished NIH-3T3 cells (NIH-3T3 cells in the presence of 0.1% SDS), and (c) the medium alone.

[3] = test system: TcGlcK; parameters: method as in PMID 31133533; details: earlier HTS campaign of 13,040 compounds; cited from earlier work
[4] = Trypanosoma cruzi, TULAHUEN, NIH3T3, 96 h

| Compound | IC50 [1, 4] [nM] | NIH-3T3 TC50 [2] | IC50 [3] [nM] | IC50 [1] [nM] | T. cruzi growth inhibition (in words) [1] |
| --- | --- | --- | --- | --- | --- |
| CCOc1ccc(C2Oc3c(cc(Br)cc3OC)C=C2[N+](=O)[O-])cc1OC (stereo not shown) [Compound 8, 6-Bromo-2-(4-ethoxy-3-methoxyphenyl)-8-methoxy-3-nitro-2H -chromene] | 1850 ± 150 | – | – | – | – |
| CCOc1ccc(C2Oc3c(Cl)cc(Cl)cc3C=C2[N+](=O)[O-])cc1OCC (stereo not shown) [Compound 9, 6,8-Dichloro-2-(3,4-diethoxyphenyl)-3-nitro-2H -chromene] | – | 17500 ± 1600 nM | 4800 | – | – |
| CCOc1ccc(C2Oc3c(Br)cc(Br)cc3C=C2[N+](=O)[O-])cc1OC (stereo not shown) [Compound 6, 6,8-Dibromo-2-(4-ethoxy-3-methoxyphenyl)-3-nitro-2H -chromene] | ≥ 2000 | 18100 ± 240 nM | – | 2560 ± 260 | – |
| COc1ccc(C2Oc3ccc(Br)cc3C=C2[N+](=O)[O-])cc1OC (stereo not shown) [Compound 4, 6-Bromo-2-(3,4-dimethoxyphenyl)-3-nitro-2H -chromene] | < 2000 | 16400 ± 1910 nM | – | 1310 ± 150 | – |
| O=[N+]([O-])C1=Cc2ccccc2OC1c1c(Cl)cccc1Cl (stereo not shown) [Compound 13, 2-(2,6-Dichlorophenyl)-3-nitro-2H -chromene] | 3080 ± 80 | – | – | – | – |
| O=[N+]([O-])C1=Cc2cc(Br)cc(Br)c2OC1c1c(Cl)cccc1Cl (stereo not shown) [Compound 7, 2-(2,6-Dichlorophenyl)-6,8-dibromo-3-nitro-2H -chromene] | 640 ± 20 | 11900 ± 510 nM | – | – | nanomolar efficacy |
| COc1ccc(C2Oc3c(cc(Br)cc3OC)C=C2[N+](=O)[O-])cc1OC (stereo not shown) [Compound 3, 6-Bromo-2-(3,4-dimethoxyphenyl)-8-methoxy-3-nitro-2H -chromene] | 960 ± 20 | 17500 ± 1900 nM | – | – | – |
| O=[N+]([O-])C1=Cc2cc(Br)ccc2OC1c1ccccc1Cl (stereo not shown) [Compound 11, 6-Bromo-2-(2-chlorophenyl)-3-nitro-2H -chromene] | – | 4120 nM and 4120 ± 1950 nM | – | – | nanomolar efficacy |
| COc1ccc(C2Oc3c(Br)cc(Br)cc3C=C2[N+](=O)[O-])cc1OC (stereo not shown) [Compound 5, 6,8-Dibromo-2-(3,4-dimethoxyphenyl)-3-nitro-2H -chromene] | 640 ± 230 | – | – | – | – |
| CCOc1ccc(C2Oc3ccc(Br)cc3C=C2[N+](=O)[O-])cc1OCC (stereo not shown) [Compound 2, 6-Bromo-2-(3,4-diethoxyphenyl)-3-nitro-2H -chromene] | 1440 ± 70 | – | – | – | – |
| CCOc1ccc(C2Oc3ccccc3C=C2[N+](=O)[O-])cc1OCC (stereo not shown) [Compound 10, 2-(3,4-Diethoxyphenyl)-3-nitro-2H -chromene] | 2560 ± 260 | 9450 ± 2200 nM | – | – | – |
| CCOc1ccc(C2Oc3ccc(Br)cc3C=C2[N+](=O)[O-])cc1OC (stereo not shown) [Compound 1, 6-Bromo-2-(4-ethoxy-3-methoxyphenyl)-3-nitro-2H -chromene] | < 2000 | 16000 ± 1840 nM | 6100 | 1490 ± 70 | – |
